We go through six compounds from EP4653451A1, “POLYPEPTIDE COMPOUND AND USE THEREOF” (Chengdu New Radiomedicine Technology Co., Ltd., priority 2023, dated 2024).

Broadly, the fraction remaining is the share of the starting amount still present when the sample was taken. Low values mean more turnover, high ones less turnover. As usually defined, the IC50 is the concentration that gives 50% inhibition.

Where a name gives a salt, the structure may show the parent alone.

One data set is described as follows: in vitro. The conditions noted are these: CD-1, mouse, plasma.
The target of data set [1] is T1, human recombinant PREP protein (Homo sapiens, UniProt P48147).
T1 construct: purchased R&D systems 4308-SE-010
T1 sequence (P48147 1-710): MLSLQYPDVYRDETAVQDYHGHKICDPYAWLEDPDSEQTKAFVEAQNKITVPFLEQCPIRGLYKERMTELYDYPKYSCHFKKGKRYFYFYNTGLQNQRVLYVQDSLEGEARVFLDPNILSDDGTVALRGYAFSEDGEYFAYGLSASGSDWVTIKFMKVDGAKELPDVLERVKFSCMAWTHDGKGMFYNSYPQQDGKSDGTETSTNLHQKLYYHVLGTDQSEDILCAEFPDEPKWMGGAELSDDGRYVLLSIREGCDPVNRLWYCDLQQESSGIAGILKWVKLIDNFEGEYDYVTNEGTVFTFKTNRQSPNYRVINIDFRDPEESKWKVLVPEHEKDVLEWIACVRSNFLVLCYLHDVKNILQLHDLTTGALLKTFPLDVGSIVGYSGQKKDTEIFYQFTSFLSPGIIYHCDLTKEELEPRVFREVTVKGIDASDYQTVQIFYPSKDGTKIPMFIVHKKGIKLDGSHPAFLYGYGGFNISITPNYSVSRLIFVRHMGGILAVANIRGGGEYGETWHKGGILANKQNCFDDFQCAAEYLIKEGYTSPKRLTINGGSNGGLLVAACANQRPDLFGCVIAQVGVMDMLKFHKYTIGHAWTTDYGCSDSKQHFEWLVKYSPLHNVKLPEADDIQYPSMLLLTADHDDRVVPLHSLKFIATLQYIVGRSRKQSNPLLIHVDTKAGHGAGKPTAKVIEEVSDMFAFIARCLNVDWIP
As to the kind of experiment: Inhibitory activity against PREP protease activity, reported as PREP/FAP IC50 ratio. It counts as biochemical. As to conditions: ratio of PREP IC50 to FAP IC50. How it is done: The human recombinant PREP protein (R&D systems, 4308-SE-010) was formulated into a 125 pM working solution with a assay buffer (25 mM Tris-HCl, 250 mM NaCl, 2.5 mM DTT, 1 mg/mL BSA), and the PREP substrate (Z-Gly-Pro-AMC (LEONBIO, 68542-93-8)) was diluted to a 125 µM PREP substrate working solution with the assay buffer. 40 µl of PREP working solution and 20 µl of compounds at different concentrations (4-fold dilution) were taken, then 40 µl of PREP substrate working solution was added, and the mixture was uniformly mixed on a shaker at room temperature for 1 min. The uniformly mixed mixture was reacted at room temperature in the dark for 90 min. Reading was made by microplate reader at excitation and emission wavelengths of 380 nm and 460 nm. The original data was saved, and the IC50 value of the compound was obtained by analyzing the data with Graphpad PRISM.

The target of data set [2] is T2, human recombinant FAP protein (Homo sapiens, UniProt Q12884).
T2 construct: purchased Acrobiosystems FAP-H82Q6
T2 sequence (Q12884 1-760): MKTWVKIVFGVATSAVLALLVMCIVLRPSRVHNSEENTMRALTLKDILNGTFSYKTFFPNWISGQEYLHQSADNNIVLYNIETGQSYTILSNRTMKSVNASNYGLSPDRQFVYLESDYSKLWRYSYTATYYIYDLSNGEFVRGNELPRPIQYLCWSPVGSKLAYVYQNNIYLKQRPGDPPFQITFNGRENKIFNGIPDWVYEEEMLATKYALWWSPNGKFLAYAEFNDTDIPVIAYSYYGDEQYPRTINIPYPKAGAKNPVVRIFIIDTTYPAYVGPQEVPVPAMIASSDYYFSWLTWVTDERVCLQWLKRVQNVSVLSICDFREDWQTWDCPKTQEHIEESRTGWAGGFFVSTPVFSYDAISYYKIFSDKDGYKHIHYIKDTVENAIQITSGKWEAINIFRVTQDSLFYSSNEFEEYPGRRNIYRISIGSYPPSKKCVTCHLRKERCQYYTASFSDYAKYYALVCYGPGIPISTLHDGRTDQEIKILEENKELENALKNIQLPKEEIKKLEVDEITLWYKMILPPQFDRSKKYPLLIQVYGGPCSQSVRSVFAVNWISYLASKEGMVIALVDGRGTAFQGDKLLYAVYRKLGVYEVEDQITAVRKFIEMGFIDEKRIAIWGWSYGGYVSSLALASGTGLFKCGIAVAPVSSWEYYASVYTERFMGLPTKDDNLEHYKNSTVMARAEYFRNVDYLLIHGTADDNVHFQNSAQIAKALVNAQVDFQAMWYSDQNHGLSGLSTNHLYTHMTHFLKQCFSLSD
As to the kind of experiment: Inhibitory activity against FAP protease activity (Z-Gly-Pro-AMC fluorescence). The format is biochemical. The conditions noted are these: 125 pM FAP working solution, 90 min at room temperature; read-out: FAP IC50. The procedure, abridged:
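Working solutions of 125 pM recombinant human FAP and 150 µM Z-Gly-Pro-AMC, in pH 7.5 Tris buffer with 1 M NaCl and 1 mg/mL BSA, combined with 4-fold compound dilutions and reacted 90 min at room temperature in the dark. AMC fluorescence (Ex 380/Em 460 nm) used to fit IC50.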

The target in data set [3] is T3, human recombinant DPP4 protein (Homo sapiens, UniProt P27487).
T3 construct: purchased Acrobiosystems DP4-H5211
As to the kind of experiment: Inhibitory activity against DPP4 protease activity (H-Gly-Pro-AMC fluorescence). It counts as biochemical. The conditions noted are these: 125 pM DPP4 working solution, 90 min at room temperature. An outline of the steps: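 125 pM DPP4 working solution and 250 µM H-Gly-Pro-AMC working solution (stock levels, not final) in 20 mM Tris-HCl, 100 mM NaCl, mixed with compound in 4-fold dilution series. Reaction 90 min at room temperature in the dark; AMC fluorescence read at ex 380/em 460 nm, IC50 fitted from the concentration series.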

T3 sequence (P27487 whole entry): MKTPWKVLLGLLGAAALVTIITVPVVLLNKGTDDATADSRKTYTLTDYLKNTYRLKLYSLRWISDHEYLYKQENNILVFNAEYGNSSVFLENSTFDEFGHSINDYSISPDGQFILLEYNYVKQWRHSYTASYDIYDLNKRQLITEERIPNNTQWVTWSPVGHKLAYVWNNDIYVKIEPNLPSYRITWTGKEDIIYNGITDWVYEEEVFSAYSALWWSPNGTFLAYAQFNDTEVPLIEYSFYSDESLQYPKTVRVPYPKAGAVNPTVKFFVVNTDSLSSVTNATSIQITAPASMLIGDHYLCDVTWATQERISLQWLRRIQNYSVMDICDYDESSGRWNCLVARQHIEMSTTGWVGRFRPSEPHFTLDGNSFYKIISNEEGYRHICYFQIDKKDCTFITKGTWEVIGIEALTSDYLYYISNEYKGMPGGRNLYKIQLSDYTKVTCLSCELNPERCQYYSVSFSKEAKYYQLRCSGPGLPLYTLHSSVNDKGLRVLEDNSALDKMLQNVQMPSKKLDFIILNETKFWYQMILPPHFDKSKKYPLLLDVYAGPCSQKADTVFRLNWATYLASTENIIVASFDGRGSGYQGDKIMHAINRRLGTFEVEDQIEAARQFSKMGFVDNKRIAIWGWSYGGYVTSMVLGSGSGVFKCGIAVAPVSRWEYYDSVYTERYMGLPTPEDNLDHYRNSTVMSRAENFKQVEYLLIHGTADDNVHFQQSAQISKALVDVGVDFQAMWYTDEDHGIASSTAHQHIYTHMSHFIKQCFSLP
Experimental for in vitro: The plasma stability experiment was performed using plasma from CD-1 mice. The compounds were diluted to a concentration of 1 mM with methanol. To 0.792 mL of plasma, 8.00 µL of 1 mM of each test compound was added, and 50.0 µL of the plasma sample was taken after uniform mixing. The remaining sample was placed in a 37°C water bath and incubated for 24 h. […] After centrifugation, the sample was diluted 1-fold with 0.2% trifluoroacetic acid and analyzed by LC-MS/MS.

For the compound `CCCCCC(=O)N[C@H]1CSCc2cc(CSCCNC(=O)CN3CCN(CC(=O)O)CCN(CC(=O)O)CCN(CC(=O)O)CC3)cc(c2)CSC[C@@H](CC(=O)O)NC(=O)[C@H](Cc2ccccc2C(F)(F)F)NC(=O)[C@H](CCC(N)=O)NC(=O)[C@H]([C@@H](C)O)NC(=O)[C@@H]2CCCN2C(=O)[C@@H]2CCCN2C1=O` [Compound 12, Hex-Cys-Pro-Pro-Thr-Gln- Phe(2-CF3)-beta-HomoCys (Cys bridge TBMB (DOTA-AET)) trifluoroacetate], the fraction remaining at 24 h, 10 µM in the data set “in vitro” is 94%. Further, the PREP/FAP entry in data set [1] is “A (A > 10000)”. The values for the half-maximal inhibitory concentration (IC50) in data set [2] and in data set [3] were 0.46 nM and more than 10000 nM, respectively.

Compound `CCCCCC(=O)N[C@H]1CSCc2cc(CSCCNC(=O)CN3CCN(CC(=O)O)CCN(CC(=O)O)CCN(CC(=O)O)CC3)cc(c2)CSC[C@@H](CC(=O)N[C@@H](Cc2ccc3ccccc3c2)C(=O)O)NC(=O)[C@H](Cc2ccccc2)NC(=O)[C@H](CCC(N)=O)NC(=O)[C@H]([C@@H](C)O)NC(=O)[C@@H]2CCCN2C(=O)[C@@H]2CCCN2C1=O` [Compound 13, Hex-Cys-Pro-Pro-Thr-Gln-Phe-beta-HomoCys-2Nal (Cys bridge TBMB (DOTA-AET)) trifluoroacetate] came in with a fraction remaining at 24 h, 10 µM in the data set “in vitro” of 100%. Further, the half-inhibitory concentration (IC50) is 0.97 nM in data set [2] and more than 10000 nM in data set [3].

The compound `CCCCCC(=O)N[C@H]1CSCc2cccc(c2F)CSC[C@@H](CNC(=O)C[C@H]2CC[C@H](NC(=O)CCNC(=O)CN3CCN(CC(=O)O)CCN(CC(=O)O)CCN(CC(=O)O)CC3)CC2)NC(=O)[C@H](Cc2ccccc2)NC(=O)[C@H](CCC(N)=O)NC(=O)[C@H]([C@@H](C)O)NC(=O)[C@@H]2CCCN2C(=O)[C@@H]2CCCN2C1=O` [Compound 15, Hex-Cys-Pro-Pro-Thr-Gln-Phe-Cys-CH2NH-(trans-4-aminocyclohexane acetic acid-betaAla-DOTA) (Cys bridge 2,6-bis(bromomethyl)fluorobenzene) trifluoroacetate] yielded a fraction remaining at 24 h, 10 µM in the data set “in vitro” of 93%. In addition, in data set [1], the PREP/FAP entry is reported as “B (10000 > B > 3300)”. The concentration for half-maximal inhibition (IC50) in data set [2] was 0.67 nM; in data set [3] it was more than 10000 nM.

`CCCCCC(=O)N[C@H]1CSCc2cccc(c2F)CSC[C@@H](CNC(=O)C[C@@H](C)NC(=O)[C@H]2CC[C@H](CNC(=O)CN3CCN(CC(=O)O)CCN(CC(=O)O)CCN(CC(=O)O)CC3)CC2)NC(=O)[C@H](Cc2ccccc2)NC(=O)[C@H](CCC(N)=O)NC(=O)[C@H]([C@@H](C)O)NC(=O)[C@@H]2CCCN2C(=O)[C@@H]2CCCN2C1=O` [Compound 16, Hex-Cys-Pro-Pro-Thr-Gln-Phe-Cys-CH2NH-(D-beta-HomoAla-tranexamic acid-DOTA) (Cys bridge 2,6-bis(bromomethyl)fluorobenzene) trifluoroacetate] registered an amount remaining at 24 h, 10 µM in “in vitro” of 96%. Further, the PREP/FAP result in data set [1] is on record as “B (10000 > B > 3300)”. Besides, the concentration for half-maximal inhibition (IC50) in data set [2] was 0.41 nM; in data set [3] it was more than 10000 nM.

Consider “Hex-Cys-Pro-Pro-Thr-Gln-Phe-Cys-CH2NH-cyclopentacarboxylic acid (Cys bridge TBMB (DOTA-AET)) trifluoroacetate [Compound 14]”, for which the PREP/FAP entry in data set [1] is “B (10000 > B > 3300)”.

On to “Hex-Cys-Pro-Pro-Thr-Gln-Phe-Cys-CH2NHAc (Cys bridge TBMB (DOTA-AET)) trifluoroacetate [Compound 10]”, for which the PREP/FAP result in data set [1] is given as “A (A > 10000)”.
